Measurements published in patent US12728124B2, “Medical use of cystic fibrosis transmembrane conductance regulator (CFTR) modulators” (priority 2020, dated 2026).

How the values were obtained:
CFTR [1] = molecular target: T1, CFTR (Homo sapiens, UniProt P13569); experiment: CFTR expression by Western blotting in HPMECs stimulated with pneumolysin; assay type: cell-based; details: pretreated 10 μmol/L Ivacaftor 24 hours, then 0.25 μg/ml PLY for 18 h; Western blot
Experimental: CFTR expression in endothelial cells was assessed by Western blotting. HPMECs were grown in 6 well plates to confluence. The confluent cells were pretreated with 10 μmol/L Ivacaftor (Cayman chemical) for 24 hours and the next day were stimulated with 0.25 μg/ml PLY for 18 h. Cells were lysed in RIPA buffer and protein concentration was measured by BCA assay and samples were stored at −80° C. or immediately analysed by western blot. Western blots were performed using 7.5% gel. After gel transfer, the blot membrane was incubated for 1 h in 5% milk diluted in tris buffer saline with tween 0.1% (TBS-T) followed by incubation for 24 h with CFTR antibody as the primary antibody diluted 1:500 in TBS-T. The next day, the membrane was incubated for 2 h in donkey anti rabbit as the secondary antibody diluted 1:10000 in TBS-T.

CFTR [2] = molecular target: T2, CFTR (Mus musculus, UniProt P26361); experiment: CFTR expression by Western blotting in lungs of S. pneumoniae infected mice; assay type: in vivo; details: Ivacaftor 2 mg/kg i.p. pre-treatment; Western blot
T2 construct: Ivacaftor pre-treatment stabilized the expression of CFTR in lungs of mice infected with S. pneumoniae; from tissue; host or cells: mouse lung tissue (mice from Charles River, Germany)

[3] = test system: human pulmonary microvascular endothelial cells (HPMECs); experiment: Endothelial calcium concentration (fura-2 340/380 ratio) in HPMECs stimulated with pneumolysin; assay type: cell-based; details: 10 μmol/L Ivacaftor for 30 min, then PLY 0.25 μg/ml for 30 min
Experimental: Permeability of endothelial cells has been additionally assessed by measuring the endothelial calcium concentration as follows: Increases in the endothelial calcium concentration represent a key mechanism that underlies the increase endothelial cell permeability. Increased endothelial calcium leads to contraction of the cells and increase gap formation between endothelial cells that lead to increased permeability. In this measurement, HPMECs were cultured in channel slides to confluence. The confluent cells were incubated for 30 min with Hanks Balanced Salt Solution containing 5% fetal bovine serum (FBS) and 10 μmol/L of the calcium sensitive dye fura-2-acetoxymethyl ester (fura-2AM) dissolved in Pluronic F-127 (20% solution in DMSO). The cells were then mounted in a heated chamber at 37° C. and perfused with Hank's salt solution containing 5% FBS with 10 μmol/L Ivacaftor (Cayman chemical) for 30 min followed by PLY (0.25 μg/ml) stimulation for 30 min. Fura-2 fluorescence was excited by monochromatic illumination at wavelength 340 and 380 nm. After background correction, the 340/380 ratio was calculated using TillVision 4.0 software (Till Photonics Germany) as a measure of endothelial calcium concentration. As positive or negative controls, cells were stimulated with only pneumolysin or non-treated cells were used, respectively.

[4] = test system: human pulmonary microvascular endothelial cells (HPMECs); assay type: cell-based; details: pretreated 24 hours with 10 μmol/L Ivacaftor or 5 μmol/L Lumacaftor, then 0.25 μg/ml pneumolysin; vs pneumolysin alone
CFTR [5] = molecular target: T1, CFTR; experiment: CFTR expression by Western blotting in HPMECs stimulated with plasma from patients with severe COVID-19; assay type: cell-based; details: pretreated 10 μmol/L Ivacaftor 24 hours, then 20% (v/v) severe COVID-19 plasma for 24 h; Western blot, densitometry
Experimental: CFTR expression in endothelial cells was assessed by Western blotting. HPMECs were grown in 6 well plates to confluence. The confluent cells were pretreated with 10 μmol/L Ivacaftor (Cayman chemical) for 24 hours and the next day were stimulated with the above described plasma from COVID-19 patients or healthy donors for 24 h. As positive control, cells were stimulated with the plasma from COVID-19 patients alone (in the absence of CFTR modulators). Plasma samples were diluted to 20% (v/v) for CFTR immunoblotting.
Cells were lysed in RIPA buffer and protein concentration was measured by BCA assay and samples were stored at −80° C. or immediately analysed by Western blot. Western blots were performed using 7.5% gel. After gel transfer, the blot membrane was incubated for 1 h in 5% milk diluted in tris buffer saline with tween 0.1% (TBS-T) followed by incubation for 24 h with CFTR antibody as the primary antibody diluted 1:500 in TBS-T. The next day, the membrane was incubated for 2 h in donkey anti rabbit as the secondary antibody diluted 1:10000 in TBS-T.

[6] = test system: S. pneumoniae infected mice; experiment: S. pneumoniae infected mice, Ivacaftor pre-treatment: lung protein leakage, survival, BALF immune cells; assay type: in vivo, mouse
[7] = test system: human pulmonary microvascular endothelial cells (HPMECs); experiment: Transendothelial electrical resistance (ECIS) of HPMECs stimulated with plasma from patients with severe COVID-19; assay type: cell-based; details: pretreated 24 hours with 10 μmol/L Ivacaftor or 5 μmol/L Lumacaftor, then 10% (v/v) severe COVID-19 plasma for 24 h
[8] = test system: S. pneumoniae infected mice; experiment: S. pneumoniae infected mice, Ivacaftor post-treatment: lung protein leakage; assay type: in vivo, mouse; details: Ivacaftor 2 mg/kg i.p. post-treatment from 6 hours post-infection
[9] = Ivacaftor 2 mg/kg i.p. pre-treatment, S. pneumoniae infected mice, 48 h p.i., FACS

T1 sequence (P13569 whole entry, looked up): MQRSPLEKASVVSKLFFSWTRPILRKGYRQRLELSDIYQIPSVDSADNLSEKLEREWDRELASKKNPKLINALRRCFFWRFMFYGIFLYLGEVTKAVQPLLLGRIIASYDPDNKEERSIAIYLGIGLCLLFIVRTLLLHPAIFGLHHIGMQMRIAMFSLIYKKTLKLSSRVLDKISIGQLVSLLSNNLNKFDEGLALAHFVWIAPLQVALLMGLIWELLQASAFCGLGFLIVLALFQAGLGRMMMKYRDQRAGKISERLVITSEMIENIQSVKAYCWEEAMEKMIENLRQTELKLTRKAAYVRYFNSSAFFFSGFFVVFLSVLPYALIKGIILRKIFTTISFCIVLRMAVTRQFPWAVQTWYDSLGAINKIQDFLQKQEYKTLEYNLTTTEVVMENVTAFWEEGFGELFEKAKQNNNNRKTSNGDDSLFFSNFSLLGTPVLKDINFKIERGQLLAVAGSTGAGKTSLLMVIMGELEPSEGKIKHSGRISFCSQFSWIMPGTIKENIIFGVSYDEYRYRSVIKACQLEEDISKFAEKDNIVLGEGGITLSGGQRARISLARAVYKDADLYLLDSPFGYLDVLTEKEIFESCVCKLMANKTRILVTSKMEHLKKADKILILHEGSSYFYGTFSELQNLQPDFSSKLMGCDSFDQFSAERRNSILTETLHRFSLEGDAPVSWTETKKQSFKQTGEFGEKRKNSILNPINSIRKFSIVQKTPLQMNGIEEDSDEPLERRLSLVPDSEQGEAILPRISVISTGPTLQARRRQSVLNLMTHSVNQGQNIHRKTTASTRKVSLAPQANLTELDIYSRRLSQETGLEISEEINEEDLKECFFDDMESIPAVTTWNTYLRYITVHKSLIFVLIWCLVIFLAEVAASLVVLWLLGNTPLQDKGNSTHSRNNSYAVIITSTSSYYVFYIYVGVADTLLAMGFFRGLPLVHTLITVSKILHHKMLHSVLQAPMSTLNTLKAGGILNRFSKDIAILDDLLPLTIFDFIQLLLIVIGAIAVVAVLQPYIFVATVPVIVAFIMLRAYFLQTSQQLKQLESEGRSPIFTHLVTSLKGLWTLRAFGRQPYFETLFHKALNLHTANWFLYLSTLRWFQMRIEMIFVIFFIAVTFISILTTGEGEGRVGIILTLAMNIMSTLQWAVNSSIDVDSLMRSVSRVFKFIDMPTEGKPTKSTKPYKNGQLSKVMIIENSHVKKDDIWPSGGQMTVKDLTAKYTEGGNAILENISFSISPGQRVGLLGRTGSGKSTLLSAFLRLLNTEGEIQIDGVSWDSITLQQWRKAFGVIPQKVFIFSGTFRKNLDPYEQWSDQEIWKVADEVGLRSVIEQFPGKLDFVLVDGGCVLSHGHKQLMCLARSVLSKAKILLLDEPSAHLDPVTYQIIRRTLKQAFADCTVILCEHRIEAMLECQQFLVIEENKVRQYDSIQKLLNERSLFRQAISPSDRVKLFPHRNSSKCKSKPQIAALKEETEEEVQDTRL
T2 sequence (P26361 whole entry): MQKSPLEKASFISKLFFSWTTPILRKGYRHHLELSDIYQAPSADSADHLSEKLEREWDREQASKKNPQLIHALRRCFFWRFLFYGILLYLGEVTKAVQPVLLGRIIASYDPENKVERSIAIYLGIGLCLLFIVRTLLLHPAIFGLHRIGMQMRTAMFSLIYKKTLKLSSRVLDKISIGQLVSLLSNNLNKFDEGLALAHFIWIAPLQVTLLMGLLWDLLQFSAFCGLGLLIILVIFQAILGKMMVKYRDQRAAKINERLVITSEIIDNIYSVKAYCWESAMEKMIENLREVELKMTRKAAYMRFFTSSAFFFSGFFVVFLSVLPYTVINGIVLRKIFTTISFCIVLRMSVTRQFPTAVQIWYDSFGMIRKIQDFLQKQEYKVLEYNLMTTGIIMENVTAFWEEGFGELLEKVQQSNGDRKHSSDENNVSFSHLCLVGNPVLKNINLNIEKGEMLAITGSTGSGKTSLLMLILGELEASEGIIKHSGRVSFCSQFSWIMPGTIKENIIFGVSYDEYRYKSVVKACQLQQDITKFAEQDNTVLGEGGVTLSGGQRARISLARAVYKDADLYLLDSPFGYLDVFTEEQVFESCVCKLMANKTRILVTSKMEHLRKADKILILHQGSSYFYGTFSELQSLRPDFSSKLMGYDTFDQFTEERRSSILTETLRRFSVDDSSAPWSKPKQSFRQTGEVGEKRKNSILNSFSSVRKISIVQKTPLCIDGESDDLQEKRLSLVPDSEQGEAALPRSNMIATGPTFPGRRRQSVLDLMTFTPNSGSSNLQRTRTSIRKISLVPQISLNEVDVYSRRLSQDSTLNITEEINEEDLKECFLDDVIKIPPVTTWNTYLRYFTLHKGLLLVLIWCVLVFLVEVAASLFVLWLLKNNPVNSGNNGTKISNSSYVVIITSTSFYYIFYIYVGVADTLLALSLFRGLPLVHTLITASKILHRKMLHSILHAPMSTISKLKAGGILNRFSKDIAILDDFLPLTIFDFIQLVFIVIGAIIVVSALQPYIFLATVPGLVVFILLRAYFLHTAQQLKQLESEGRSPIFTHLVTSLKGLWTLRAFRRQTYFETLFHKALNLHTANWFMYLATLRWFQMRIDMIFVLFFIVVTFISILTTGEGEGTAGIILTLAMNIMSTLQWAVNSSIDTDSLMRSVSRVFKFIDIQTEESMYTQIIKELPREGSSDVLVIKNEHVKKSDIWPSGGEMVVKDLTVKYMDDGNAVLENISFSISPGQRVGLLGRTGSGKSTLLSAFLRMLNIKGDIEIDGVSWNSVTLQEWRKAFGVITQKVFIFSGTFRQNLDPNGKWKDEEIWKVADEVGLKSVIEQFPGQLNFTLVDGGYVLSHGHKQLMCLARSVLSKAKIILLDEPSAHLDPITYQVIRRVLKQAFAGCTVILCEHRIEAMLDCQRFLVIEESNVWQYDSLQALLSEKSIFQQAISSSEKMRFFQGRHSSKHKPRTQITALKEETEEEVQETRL

Row | Compound | CFTR expression in HPMECs after pneumolysin stimulation (CFTR [1]) | CFTR expression in lungs of S. pneumoniae infected mice (CFTR [2]) | endothelial calcium concentration ([Ca2+]i) after pneumolysin stimulation [3] | transendothelial electrical resistance of HPMEC monolayer after pneumolysin stimulation [4] | CFTR expression in HPMECs after stimulation with plasma from COVID-19 patients (CFTR [5]) | survival rate in S. pneumoniae infected mice ([6]; Ivacaftor 2 mg/kg i.p. pre-treatment) | endogenous mouse serum albumin BALF/plasma ratio (protein leakage into the lung) ([6]; Ivacaftor 2 mg/kg i.p. pre-treatment from 24 h before infection, 48 h post infection with S. pneumoniae) | exogenous human serum albumin (HSA) BALF/plasma ratio (protein leakage into the lung) ([6]; Ivacaftor 2 mg/kg i.p. pre-treatment from 24 h before infection, HSA i.v. 1 h before BAL, 48 h post infection) | inflammatory macrophages in BALF [6, 9] | leukocytes in BALF [6, 9] | polymorphonuclear leukocytes (PMN) in BALF [6, 9] | transendothelial electrical resistance of HPMECs after stimulation with plasma from COVID-19 patients [7] | endogenous mouse serum albumin BALF/plasma ratio (protein leakage into the lung) ([8]; 48 h post infection with S. pneumoniae) | exogenous human serum albumin (HSA) BALF/plasma ratio (protein leakage into the lung) ([8]; HSA i.v. 1 h before BAL, 48 h post infection)
1 | CC(C)(C)c1cc(C(C)(C)C)c(NC(=O)c2c[nH]c3ccccc3c2=O)cc1O [Ivacaftor, N-(5-hydroxy-2,4-ditert-butyl-phenyl)-4-oxo-1H-quinoline-3-carboxamide] | CFTR expression comparable to control cells | stabilized expression of CFTR | lesser increase | less reduced resistance | CFTR expression comparable to control cells | increased survival rate | reduced protein leakage into the lung | reduced protein leakage into the lung | decreased the levels of all three inflammatory cell subsets in the BALF | decreased the levels of all three inflammatory cell subsets in the BALF | decreased the levels of all three inflammatory cell subsets in the BALF | less reduced transendothelial electrical resistance | reduced protein leakage into the lung | reduced protein leakage into the lung
2 | Cc1ccc(NC(=O)C2(c3ccc4c(c3)OC(F)(F)O4)CC2)nc1-c1cccc(C(=O)O)c1 [Lumacaftor, 3-[6-({[1-(2,2-difluoro-1,3-benzodioxol-5-yl)cyclopropyl]carbonyl}amino)-3-methylpyridin-2-yl]benzoic acid] | – | – | – | less reduced resistance | – | – | – | – | – | – | – | less reduced transendothelial electrical resistance | – | –
